From ChEMBL document CHEMBL1151440, “Safety and pharmacokinetics of GSK364735, a human immunodeficiency virus type 1 integrase inhibitor, following single and repeated administration in healthy adult subjects” (Antimicrob Agents Chemother, 2007)

Legend:
Homo sapiens [1] = experiment: Toxicity in human assessed as changes in continuous telemetry monitoring at 50 to 400 mg after sequential repeated administration for 8 days; type: organism-based; details: in vivo, 192 h
[2] = AUC (0 to infinity) in fasted human at 400 mg administered as single dose; type: ADME, organism-based; parameters: dose 400 mg, time infinity; details: plasma
[3] = AUC (0 to infinity) in human at 400 mg administered with fat meal as single dose; type: ADME, organism-based; parameters: dose 400 mg, time infinity; details: plasma
[4] = Apparent oral clearance in human at 200 mg administered with fat meal every 12 hrs for 8 days measured on day 8; type: ADME, organism-based; details: in vivo
Homo sapiens [5] = experiment: Toxicity in human assessed as increase in LDL cholesterol level at 50 to 400 mg after sequential repeated dose administration for 8 days relative to basal level; type: organism-based; details: in vivo, 192 h
[6] = Cmax in fasted human at 100 mg administered as single dose; type: ADME, organism-based; parameters: dose 100 mg; details: in vivo
[7] = Cmax in fasted human at 200 mg administered as single dose; type: ADME, organism-based; parameters: dose 200 mg; details: in vivo
[8] = Tmax in fasted human at 100 mg administered as single dose; type: ADME, organism-based; details: in vivo
[9] = Tmax in fasted human at 400 mg administered as single dose; type: ADME, organism-based; details: in vivo
[10] = Tmax in fasted human at 200 mg administered with fat meal as single dose; type: ADME, organism-based; details: in vivo
[11] = Tmax in fasted human at 400 mg administered with fat meal as single dose; type: ADME, organism-based; details: in vivo
[12] = Terminal elimination half life in fasted human at 50 mg administered as single dose; type: ADME, organism-based; details: in vivo, read-out: beta t1/2 (converted)
[13] = Terminal elimination half life in fasted human at 200 mg administered as single dose; type: ADME, organism-based; details: in vivo, read-out: beta t1/2 (converted)
[14] = Terminal elimination half life in fasted human at 400 mg administered as single dose; type: ADME, organism-based; details: in vivo, read-out: beta t1/2 (converted)
[15] = Terminal elimination half life in human at 400 mg administered with fat meal as single dose; type: ADME, organism-based; details: in vivo, read-out: beta t1/2 (converted)
[16] = Apparent oral clearance in fasted human at 200 mg administered as single dose; type: ADME, organism-based; details: in vivo
[17] = Apparent oral clearance in human at 400 mg administered with fat meal as single dose; type: ADME, organism-based; details: in vivo
[18] = AUC (0 to infinity) in human at 50 mg administered with fat meal every 12 hrs for 8 days measured on day 1; type: ADME, organism-based; parameters: dose 50 mg, time infinity; details: plasma
[19] = AUC (0 to infinity) in human at 100 mg administered with fat meal every 12 hrs for 8 days measured on day 1; type: ADME, organism-based; parameters: dose 100 mg, time infinity; details: plasma
[20] = Apparent oral clearance in human at 50 mg administered with fat meal every 12 hrs for 8 days measured on day 8; type: ADME, organism-based; details: in vivo
[21] = AUC (0 to infinity) in human at 200 mg administered with fat meal every 12 hrs for 8 days measured on day 1; type: ADME, organism-based; parameters: dose 200 mg, time infinity; details: plasma
[22] = AUC (0 to infinity) in human at 400 mg administered with fat meal daily for 8 days measured on day 1; type: ADME, organism-based; parameters: dose 400 mg, time infinity; details: plasma
[23] = Cmax in human at 100 mg administered with fat meal every 12 hrs for 8 days measured on day 1; type: ADME, organism-based; parameters: dose 100 mg; details: in vivo
[24] = Cmax in human at 200 mg administered with fat meal every 12 hrs for 8 days measured on day 1; type: ADME, organism-based; parameters: dose 200 mg; details: in vivo
[25] = Cmax in human at 200 mg administered with fat meal every 8 hrs for 8 days measured on day 1; type: ADME, organism-based; parameters: dose 200 mg; details: in vivo
[26] = Tmax in human at 400 mg administered with fat meal daily for 8 days measured on day 1; type: ADME, organism-based; details: in vivo
[27] = Tmax in human at 200 mg administered with fat meal every 8 hrs for 8 days measured on day 1; type: ADME, organism-based; details: in vivo
[28] = Terminal elimination half life in human at 50 mg administered with fat meal every 12 hrs for 8 days measured on day 1; type: ADME, organism-based; details: in vivo, read-out: beta t1/2 (converted)
[29] = Terminal elimination half life in human at 100 mg administered with fat meal every 12 hrs for 8 days measured on day 1; type: ADME, organism-based; details: in vivo, read-out: beta t1/2 (converted)
[30] = Terminal elimination half life in human at 200 mg administered with fat meal every 12 hrs for 8 days measured on day 1; type: ADME, organism-based; details: in vivo, read-out: beta t1/2 (converted)

**Q.** Which Activity (Homo sapiens [1]) does the source give for Cn1c(=O)c(C(=O)NCCO)c(O)c2ncc(Cc3ccc(F)cc3)cc21 [GSK-364735] here?
**A.** Non-toxic

**Q.** What about the AUC(0-inf) [2] of the same molecule?
**A.** 6.6 µg·h/mL

**Q.** And the AUC(0-inf) [3]?
**A.** 8.5 µg·h/mL

**Q.** What about the CL/F [4] of the same molecule?
**A.** 350 mL/min

**Q.** What about the Activity (Homo sapiens [5]) of the same molecule?
**A.** 0.5 mg/dL

**Q.** And the Cmax [6]?
**A.** 1 µg/mL

**Q.** What about the Cmax [7] of the same molecule?
**A.** 1.1 µg/mL

**Q.** What about the Tmax [8] of the same molecule?
**A.** 2.5 h

**Q.** And the Tmax [9]?
**A.** 2.2 h

**Q.** What about the Tmax [10] of the same molecule?
**A.** 4 h

**Q.** And the Tmax [11]?
**A.** 7 h

**Q.** What about the half-life [12] of the same molecule?
**A.** 3.1 h

**Q.** What about the half-life [13] of the same molecule?
**A.** 5.3 h

**Q.** And the half-life [14]?
**A.** 6.6 h

**Q.** And the half-life [15]?
**A.** 5.8 h

**Q.** What about the CL/F [16] of the same molecule?
**A.** 600 mL/min

**Q.** And the CL/F [17]?
**A.** 783 mL/min

**Q.** What about the AUC(0-inf) [18] of the same molecule?
**A.** 4 µg·h/mL

**Q.** What about the AUC(0-inf) [19] of the same molecule?
**A.** 11 µg·h/mL

**Q.** What about the CL/F [20] of the same molecule?
**A.** 150 mL/min

**Q.** What about the AUC(0-inf) [21] of the same molecule?
**A.** 9.2 µg·h/mL

**Q.** And the AUC(0-inf) [22]?
**A.** 15 µg·h/mL

**Q.** What about the Cmax [23] of the same molecule?
**A.** 2.5 µg/mL

**Q.** And the Cmax [24]?
**A.** 1.5 µg/mL

**Q.** And the Cmax [25]?
**A.** 1.1 µg/mL

**Q.** What about the Tmax [26] of the same molecule?
**A.** 5 h

**Q.** And the Tmax [27]?
**A.** 3.75 h

**Q.** What about the half-life [28] of the same molecule?
**A.** 2.6 h

**Q.** And the half-life [29]?
**A.** 3.1 h

**Q.** What about the half-life [30] of the same molecule?
**A.** 3.9 h
